Source: patent US20240216372A1, “THERAPEUTICS FOR KELOIDS AND OTHER FIBROTIC DISORDERS” (Florida State University Research Foundation, Inc., priority 2022, published 2024)

Legend:
[1] = system: Insulin-like Growth Factor 2 (IGF2) signaling; conditions: general statement, no test described; cited from earlier work
[2] = system: keloid dermal fibroblasts; assay: keloid fibroblast proliferation; type: cell-based, human; conditions: for effect on keloid fibroblast proliferation / sensitivity of keloid dermal fibroblasts to the drug (effective concentration range): patient-derived keloid dermal fibroblasts; for sensitivity of keloid fibroblasts compared to normal HDFs: keloid fibroblasts versus normal HDFs
[3] = system: normal primary human dermal fibroblasts (HDFs); assay: normal HDF proliferation; type: cell-based

| Compound | effective range as inhibitor of IGF2 signaling [1] | effect on keloid fibroblast proliferation [2] | sensitivity of keloid dermal fibroblasts to the drug (effective concentration range) [2] | sensitivity / proliferation of normal HDFs [3] | sensitivity of keloid fibroblasts compared to normal HDFs [2] |
| --- | --- | --- | --- | --- | --- |
| CN(C)c1ccc2c(c1)OC(N)=C(C#N)C2c1cccc(C(F)(F)F)c1 (stereo not drawn) [Chromeceptin] | low nanomolar range | blocks keloid fibroblast proliferation | sensitive | – | – |
| COc1ccc(CCN(C)CCCC(C#N)(c2ccc(OC)c(OC)c2)C(C)C)cc1OC (stereo not drawn) [Verapamil] | – | inhibits the proliferation of keloid fibroblasts | – | – | – |
| O=C(O)C(=O)c1cn(Cc2ccccc2)c2ccc(-c3ccc(OC(F)(F)F)cc3)cc12 [Tiplaxtinin] | – | – | low micromolar range | not significantly sensitive | preferentially blocks keloid fibroblast proliferation over normal HDF proliferation |
| CNC(=O)Nc1ccc2c(c1)CC[C@@]21OC(=O)N(CC(=O)N(Cc2ccc(F)cc2)[C@@H](C)C(F)(F)F)C1=O [A485] | – | – | – | – | much more sensitive |
| COc1cc(/C=C/C(=O)CC(=O)/C=C/c2ccc(O)c(OC)c2)ccc1O [Curcumin] | – | – | – | – | much more sensitive |
